Assay results published in patent US10654896B2, “FoxP3-binding peptides and uses thereof” (FUNDACIÓN PARA LA INVESTIGACIÓN MÉDICA APLICADA, priority 2016, dated 2020).
Where a SMILES comes first, the peptide text is derived from it. [ ]: non-standard residue; d: D form.

Test system: murine Treg (CD25+ T cells)
Assay: In vitro Treg suppression assay ([3H]-thymidine, anti-CD3)
Type: cell-based, BALB/c mice
Conditions: for IC50: read-out: IC50 (peptide concentration able to inhibit 50% of Treg activity)
Method: Spleen was harvested from BALB/c mice (Harlan Laboratories) and homogenized with a 1-ml syringe through a 100-μm cell strainer into a 50-ml conical tube and rinsed two times with PBS (Calcium free) to recover all cells. Cell homogenate was centrifuged at 300×g for 10 min and resuspended homogenate in 1 ml ACK Lysis buffer solution per spleen. Gently swirled for 2 min and then the reaction was quenched by adding 12 ml of PBS.
Cells were centrifuged at 300×g for 10 min and purification of CD25− and CD25+ cells was carried out using magnetic beads (Miltenyi, CD25 microbead kit MOUSE, Ref 130-091-072)), following manufacturer's instructions. After labelling the cells, they were purified using Automacs-Pro device following manufacturer's instructions. Negative fraction corresponded to CD25− cells, which was used as effector Tconv cells. Positive fraction corresponded to CD25+ T cells that was used as Treg cells. Flow cytometry using anti-CD25-APC labeled and anti-CD4-FITC labelled antibodies was used to confirm the purity of isolated cells. Foxp3 expression was analyzed using the anti-Foxp3 staining antibody labelled with APC according to manufacturer's instructions (eBioscience). Purified cells were washed, resuspended in culture medium and diluted in T-cell culture medium (RPMI 1640, supplemented with 10% Fetal bovine serum and antibiotics) at a concentration of 2×10^5/ml (for Tregs) and 2×10^6/ml (for Tconv), for the assay (See below)
The first in vitro assays to measure regulatory T-cell (Treg) function were described by two groups over a decade ago. […] With this knowledge, it was shown that CD4+CD25+ T cells could potently suppress the proliferation of activated CD4+CD25− and CD8+ T cells when the populations were cocultured in vitro. The following protocol describes a basic type of in vitro Treg suppression assay where Treg function is measured in the absence of antigen-presenting cells (APCs). In this protocol, activation is mediated by anti-CD3 antibodies and includes only two cell types, the target Tconv and Tregs. In this protocol, the experiment is setup in a 96-well round-bottom plate in a total volume of 200 μl. All reagents are prepared at four times their desired final concentration and added to assay in 50 μl such that the total volume is 200 μl, thus obtaining the desired final concentration of reactives. Purified Tregs and Tconv prepared as described above were diluted and adjusted in T-cell culture medium to 2×10^5/ml and 2×10^6/ml, respectively. In round-bottom 96-well plate, Tregs and Tconv were added in 50 μl of culture media each (RPMI 1640, supplemented with 10% Fetal bovine serum, and antibiotics). Anti-CD3 antibody was added in 50 μl (final concentration will be 2.5 μg/ml) as a stimulus to induce T cell proliferation. 50 μL of each one of the peptides to be tested were added in the corresponding wells at a concentration of 100 μM and those which provided the best results were tested again at lower concentrations to determine the IC50 value. The final volume was 200 μl in all wells. Tconv alone, Tconv plus anti-CD3, Tconv+anti-CD3+ Treg or Tconv+anti-CD3+Treg+peptides were tested by quadruplicate. Tconv plus anti-CD3 with no Treg was used to determine maximum proliferation of Tconv whereas Tconv+anti-CD3+ Treg was used to determine Treg inhibition. Plates were incubated at 37° C., 5% CO2 for 72 h and then pulsed with 0.1 μCi [^3H]-thymidine (in 25 μl of culture medium per well). After 8 h of incubation, cell cultures were harvested with a cell harvester (Perkin Elmer) and using unifilter plates. Plates were then dried at 50° C., and scintillation reagent (25 μl)(Microscint, Perkin Elmer) was added to each well. Counts per minute (cpm) were determined with a direct beta counter (TopCount, Perkin Elmer).
The results of in vitro Treg suppression assays are most commonly reported as cpm when [^3H]-thymidine is incorporated into proliferating cells. […]

Row | Compound | IC50 [µM] | Treg inhibition - % inhibition (100 μM) (peptide 100 μM) [%]
1 | CSCC[C@H](NC(=O)[C@H](C)NC(=O)[C@H](Cc1ccccc1)NC(=O)[C@H](Cc1ccccc1)NC(=O)[C@@H]1CCCN1C(=O)[C@H](Cc1c[nH]c2ccccc12)NC(=O)[C@H](CCSC)NC(=O)[C@H](CCCCN)NC(=O)[C@H](CCCNC(=N)N)NC(=O)[C@H](Cc1ccccc1)NC(=O)[C@H](CO)NC(=O)[C@H](CCC(N)=O)NC(=O)[C@H](Cc1ccccc1)NC(=O)[C@@H](CC(=O)O)NC(=O)[C@@H](N)CCCNC(=N)N)C(=O)O [compound 3] (H-R[dD]FQSFRKMWPFFAM-OH) | 27.2 | –
2 | CSCC[C@H](NC(=O)[C@H](C)NC(=O)[C@H](Cc1ccccc1)NC(=O)[C@H](Cc1ccccc1)NC(=O)[C@@H]1CCCN1C(=O)[C@H](Cc1c[nH]c2ccccc12)NC(=O)[C@H](CCSC)NC(=O)[C@H](CCCCN)NC(=O)[C@H](CCCNC(=N)N)NC(=O)[C@H](Cc1ccccc1)NC(=O)[C@H](CO)NC(=O)[C@H](CCC(N)=O)NC(=O)[C@H](Cc1ccccc1)NC(=O)[C@H](C)NC(=O)[C@H](N)CCCNC(=N)N)C(=O)O [compound 46] (H-[dR]AFQSFRKMWPFFAM-OH; N-terminus and C-terminus assumed) | 12.5 | –
3 | CSCC[C@H](NC(=O)[C@H](CCCCN)NC(=O)[C@H](CCCNC(=N)N)NC(=O)[C@H](Cc1ccccc1)NC(=O)[C@H](CO)NC(=O)[C@H](CCC(N)=O)NC(=O)[C@H](Cc1ccccc1)NC(=O)[C@H](C)NC(=O)[C@@H](N)CCCNC(=N)N)C(=O)N[C@@H](Cc1c[nH]c2ccccc12)C(=O)N1CCC[C@H]1C(=O)N[C@@H](Cc1ccccc1)C(=O)N[C@@H](Cc1ccccc1)C(=O)N[C@@H](C)C(=O)N[C@H](CCSC)C(=O)O [compound 47] (H-RAFQSFRKMWPFFA[dM]-OH; N-terminus and C-terminus assumed) | 35 | –
4 | CSCC[C@H](NC(=O)[C@H](CCCCN)NC(=O)[C@H](CCCNC(=N)N)NC(=O)[C@H](Cc1ccccc1)NC(=O)[C@H](CO)NC(=O)[C@H](CCC(N)=O)NC(=O)[C@H](Cc1ccccc1)NC(=O)[C@H](C)NC(=O)[C@H](N)CCCNC(=N)N)C(=O)N[C@@H](Cc1c[nH]c2ccccc12)C(=O)N1CCC[C@H]1C(=O)N[C@@H](Cc1ccccc1)C(=O)N[C@@H](Cc1ccccc1)C(=O)N[C@@H](C)C(=O)N[C@H](CCSC)C(=O)O [compound 48] (H-[dR]AFQSFRKMWPFFA[dM]-OH; N-terminus and C-terminus assumed) | 20 | –
5 | CSCC[C@@H]1NC(=O)[C@H](C)NC(=O)[C@H](Cc2ccccc2)NC(=O)[C@H](Cc2ccccc2)NC(=O)[C@@H]2CCCN2C(=O)[C@H](Cc2c[nH]c3ccccc23)NC(=O)[C@H](CCSC)NC(=O)[C@H](CCCCN)NC(=O)[C@H](CCCNC(=N)N)NC(=O)[C@H](Cc2ccccc2)NC(=O)[C@H](C)NC(=O)[C@H](CCC(N)=O)NC(=O)[C@H](Cc2ccccc2)NC(=O)[C@H](C)NC(=O)[C@H](CCCNC(=N)N)NC1=O [compound 50] (cyclo(RAFQAFRKMWPFFAM)) | 0.8 | –
6 | H-RDFQSFRKMWPFFAM-OH [compound 1] | 38.3 | 115.6
